As a reminder, the IC50 is the concentration that gives 50% inhibition.

Where two headings read alike, the source gives them in different places.

Data on one molecule can be found in US20240261249A1, “NOVEL SQUARAMIDE DERIVATIVE AND USE THEREOF” (PUSAN NATIONAL UNIVERSITY INDUSTRY-UNIVERSITY COOPERATION …, priority 2021, published 2024).

Common to all, as to format: cell-based
One experiment concerns Phospho-eIF2α (Ser51). As to the kind of experiment: Phospho-eIF2α (Ser51) Sandwich ELISA in K562 cells. As to conditions: Homo sapiens, K562, 6 h, serum-free RPMI, 10 μM compound, control = 1, read-out: eIF2α phosphorylation, absorbance standardized to control (DMSO-treated) set to 1, at 10 μM. Summed up:
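K562 cells in serum-free RPMI (37 °C, 5% CO2) were exposed to compounds at 10 μM for 6 h, then lysed, and 50 μg protein was run in the sandwich ELISA. Absorbance was normalised to the DMSO control set to 1.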
For orientation: ELISA stands for enzyme-linked immunosorbent assay.

A further experiment has as its system K562 cell line. In words: CCK-8 anti-proliferative assay, K562. As to conditions: Homo sapiens, 72 h, K562, culture for 3 days. On the procedure: CCK-8 assay (cell counting kit-8 assay, Dojindo, Kumamoto, Japan) was performed. The K562 cell line was cultured in RPMI medium supplemented with 10% FBS and 1% ABAM at 37° C. in the presence of 5% CO2. Cells were treated with test compounds at concentrations of 0 μM, 1.25 μM, 2.5 μM, 5 μM, 10 μM, and 20 μM, respectively. After culture for 3 days, 10 μL of CCK-8 solution was treated and cultured for 4 hours. Subsequently, the absorbance was measured at 450 nm to obtain the IC50 value of each compound.
The experimental values for the K562 cell line are identical to biological Example 2.
For orientation: Tetrazolium dyes change colour on reduction, which living cells bring about.

Experiment [1] has as its system PBMC (peripheral blood monocyte cells isolated from normal donors). In words: CCK-8 assay, PBMC (normal cells). On the procedure:
PBMC (peripheral blood monocyte cells isolated from normal donors) cell lines were dispensed in RPMI medium supplemented with 10% FBS and 1% ABAM at 37° C. in the presence of 5% CO2, and then the test compounds were treated at concentrations of 0 μM, 1.25 μM, 2.5 μM, 5 μM, 10 μM, and 20 μM, respectively. After culture for 3 days, 10 μL of CCK-8 solution was treated and cultured for 4 hours. Subsequently, the absorbance at 450 nm was measured to obtain the IC50 value of each compound.

Consider `CS(=O)(=O)c1ccc(O[C@H]2CC[C@H](Nc3c(Nc4cc(C#N)cc(C(F)(F)F)c4)c(=O)c3=O)CC2)cc1` [Compound 86, 3-((2-(((1,4-trans)-4-(4-(Methylsulfonyl)phenoxy)cyclohexyl)amino)-3,4-dioxocyclobut-1-en-1-yl)amino)-5-(trifluoromethyl)benzonitrile], for which the activity at 10 µM in the experiment with Phospho-eIF2α (Ser51) stood at 168%. Besides, the 50% inhibitory concentration (IC50) in the experiment with K562 cell line (CCK-8, Table 2, read-out: IC50) came to 14.2 µM; in the experiment with K562 cell line (CCK-8, Table 3 (identical to Example 2), tested 0-20 μM, read-out: IC50 K562), 14.2 µM; in experiment [1] (72 h, PBMC normal cells, culture for 3 days, CCK-8, tested 0-20 μM), 21 µM. Also, the “SI (selectivity index)” value in experiment [1] (K562 cells compared to PBMC) is on record as 1.31.
